Assay results taken from publication PMC4867592, “Targeting multiple response regulators of Mycobacterium tuberculosis augments the host immune response to infection” (Scientific Reports, 2016).
“And” between values parts separate entries of the source, which are not always exact repeats. Identical values can stand only once. Like-named read-outs stand apart in the source and are kept apart here.

Columns and labels:
Mtb-infected macrophages = test: Autophagy assays in Mtb-infected macrophages (LC3-II immunoblot, LC3 puncta); assay type: cell-based; details: for LC3 puncta formation in infected macrophages: BMDMs, hMDMs, RAW264.7, C2 20 μM, isoniazid 0.5 µg/ml
Procedure: For autophagy analysis, infected macrophages were lysed and immunoblotted with LC3 antibody. For the visualisation of LC3 puncta, infected macrophages were incubated with LC3 antibody followed by immunostaining with Alexa 488-conjugated secondary antibody. Images were acquired in a Leica confocal microscope. At least 100 cells were counted to enumerate the number of punctated cells. Detailed methods have been provided in the supplemental section.
(§1) RAW 264.7 cells or hMDMs or BMDMs were seeded at ~3x10^5 cells per well on 18 mm cover slips.
(§2) After infection and treatment with C2 or isoniazid (INH) , the cells were fixed with 4% paraformaldehyde for 10 min at 25°C followed by permeabilisation with 0.01% Triton X-100 in PBS for 10 min at 25°C. The cells were then treated with 10% BSA in PBS for 90 min at 25°C followed by treatment with anti-LC3 antibody at 4°C overnight. Cells were then washed with PBS and treated with Alexa488 conjugated secondary antibody for 90 min at 25°C. Cells were visualized in a Leica confocal […]
(§3) Bacterial CFU determinations
RAW264.7 cells or hMDMs or BMDMs were plated in 48 well plates. Cells were infected with Mtb and treated with C2 or C6 for the desired periods of time. Infected cells were lysed in distilled water with 0.06% SDS. Serial dilutions of homogenates were plated on 7H11 agar plates supplemented with 10% OADC and incubated at 37 °C for 3–4 weeks. CFUs were calculated in triplicate using standard procedures. For Alamar Blue assays, bacteria from the cell lysates were washed and transferred to a 96 well plate in MB 7H9. Alamar Blue was added and readings were taken upon development of […]
For NO (nitrite) measurements, RAW264.7 or MDMs or BMDMs were infected with Mtb H37Rv. Control and infected supernatants obtained in the absence or presence of C2, were used for the measurement of nitrite using Griess reagent (Invitrogen), according to the manufacturer’s instructions. Supernatant nitrite concentrations were measured by reading absorbance at 540 nm and calculated using a standard curve. […]

Mtb [1] = test: qRT-PCR / semi-quantitative RT-PCR of Mtb gene expression; assay type: cell-based, Mycobacterium tuberculosis H37Rv
Mtb [2] = test: Alamar Blue assay of Mtb growth in vitro; assay type: cell-based, Mycobacterium tuberculosis H37Rv
RAW264.7 = test: Survival of RAW264.7 measured by Alamar Blue
Mtb [3] = test: Growth curve of Mtb (absorbance at 600 nm); assay type: cell-based, Mycobacterium tuberculosis H37Rv
Mtb in hMDM = test: Mtb CFU in infected human monocyte derived macrophages; assay type: cell-based, Mycobacterium tuberculosis H37Rv; details: MOI 5, 20 μM, after 6 days
[4] = system: NO release from macrophages; test: NO (nitrite) release from macrophages, Griess reagent; assay type: cell-based
Procedure: For NO (nitrite) measurements, RAW264.7 was infected with Mtb in DMEM for 24–48 h. Nitrite was measured using Griess reagent (Invitrogen), according to the manufacturer’s instructions. Absorbance was read at 540 nm in an ELISA reader and the concentrations of nitrite were calculated against a standard curve.
as §1, §2, §3
RAW264.7 cells or hMDMs or BMDMs were plated in 48 well plates. Cells were infected with Mtb and treated with C2 or C6 for the desired periods of time. […] CFUs were calculated in triplicate using standard procedures. […] Alamar Blue was added and readings were taken upon development of […]
For NO (nitrite) measurements, RAW264.7 or MDMs or BMDMs were infected with Mtb H37Rv. […] Supernatant nitrite concentrations were measured by reading absorbance at 540 nm and calculated using a standard curve. […]

MprA = molecular target: T1, MprA (Mycobacterium tuberculosis, UniProt P9WGM9); test: EMSA: binding of phosphorylated MprA to mprA promoter DNA; parameters: species or system Mtb
T1 construct: His (N); made in house; host or cells: E. coli BL21(DE3)
T1 sequence (P9WGM9 1-230): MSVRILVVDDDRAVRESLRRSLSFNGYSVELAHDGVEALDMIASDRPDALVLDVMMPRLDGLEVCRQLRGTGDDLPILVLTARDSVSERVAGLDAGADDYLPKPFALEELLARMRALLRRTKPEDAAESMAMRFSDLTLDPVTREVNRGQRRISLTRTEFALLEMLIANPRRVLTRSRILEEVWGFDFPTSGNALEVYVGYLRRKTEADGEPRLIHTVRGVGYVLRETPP

DosR = molecular target: T2, DosR (Mycobacterium tuberculosis, UniProt P9WMF9); test: EMSA: binding of phosphorylated DosR (DevR) to hspX promoter-derived DNA; parameters: species or system Mtb
T2 construct: His6; made in house; host or cells: E. coli C43(DE3)
T2 sequence (P9WMF9 whole entry): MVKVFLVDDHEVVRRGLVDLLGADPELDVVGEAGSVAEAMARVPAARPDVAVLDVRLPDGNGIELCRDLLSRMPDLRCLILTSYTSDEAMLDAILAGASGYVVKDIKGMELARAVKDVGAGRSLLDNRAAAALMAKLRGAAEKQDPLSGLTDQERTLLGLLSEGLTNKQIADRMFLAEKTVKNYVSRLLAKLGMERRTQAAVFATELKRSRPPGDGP

Mtb [5] = assay type: cell-based, Mycobacterium tuberculosis H37Rv
MtrA = molecular target: T3, MtrA (Mycobacterium tuberculosis, UniProt P9WGM7); test: EMSA: binding of phosphorylated MtrA to fbpB promoter DNA; parameters: species or system Mtb
T3 construct: Full length MtrA/Rv3246c excluding the stop codon; His (C); made in house; host or cells: E. coli C41(DE3)
T3 sequence (P9WGM7 1-228): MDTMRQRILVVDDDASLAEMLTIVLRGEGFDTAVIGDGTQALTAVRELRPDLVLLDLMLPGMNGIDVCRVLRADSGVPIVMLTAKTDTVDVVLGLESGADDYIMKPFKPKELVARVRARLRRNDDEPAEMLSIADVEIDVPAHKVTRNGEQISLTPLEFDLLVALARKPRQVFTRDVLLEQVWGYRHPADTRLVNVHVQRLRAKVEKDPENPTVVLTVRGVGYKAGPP

Mtb in BMDM = test: Mtb CFU in infected murine bone marrow derived macrophages; assay type: cell-based, Mycobacterium tuberculosis H37Rv; details: MOI 5, 20 μM, after 6 days
RegX3 = molecular target: T4, RegX3 (Mycobacterium tuberculosis, UniProt P9WGL9); test: EMSA: binding of phosphorylated RegX3 to ppk1 promoter DNA; parameters: species or system Mtb
T4 construct: made in house; host or cells: E. coli
T4 sequence (P9WGL9 1-227): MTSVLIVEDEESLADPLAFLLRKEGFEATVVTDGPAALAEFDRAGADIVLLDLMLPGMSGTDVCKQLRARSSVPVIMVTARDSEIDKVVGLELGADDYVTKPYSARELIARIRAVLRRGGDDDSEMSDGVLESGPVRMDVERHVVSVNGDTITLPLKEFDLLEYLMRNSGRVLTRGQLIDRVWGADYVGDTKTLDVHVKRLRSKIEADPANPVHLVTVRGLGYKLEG

Mtb Erdman = assay type: cell-based, Mycobacterium tuberculosis Erdman; details: immunoblot

NNC(=O)c1ccncc1 [INH, isoniazid, reference compound]
LC3 puncta formation in infected macrophages (Mtb-infected macrophages): enhanced

2-iminothiazolidine-4-one [Compound 2]
Expression of activated targets sigB, sigE, Rv0081, ftsI, dnaN, pstS3 (Mtb [1]; 20 µM): repressed | Expression of repressible targets rpfB, gltA1, cydA (Mtb [1]; 20 µM): augmented | esxA expression (Mtb [1]; 20 µM): lowered | Expression of espA and espR (Mtb [1]; 20 µM, 48 hours of treatment): reduced | Expression of mtrA, regX3 and mprA (Mtb [1]; exposure for 48 h): inhibited | In vitro IC50 against Mtb (Mtb [2]): 6 µg/mL | In vitro MIC against Mtb (Mtb [2]): 17 μg/ml and 25 μM | In vitro IC50 against Mtb (Mtb [2]; listed as C2): ~ 6 μg/ml | IC50 (Mtb [2]; read-out: In vitro IC50 against Mtb): 9 µM | Viability of RAW264.7 (RAW264.7): did not affect the viability | Growth curve of Mtb (Mtb [3]): levelled off earlier | Decrease in CFU of Mtb in MDMs (Mtb in hMDM): ~ 8 fold | NO release from infected macrophages ([4]; Mtb-infected BMDMs, hMDMs, RAW264.7, 20 μM): significantly higher | NO release from uninfected macrophages ([4]; compound alone, data not shown): did not affect NO release | Inhibition of binding ability of MprA (MprA): inhibited | IC50 (MprA; densitometry, read-out: IC50, inhibition of MprA binding to mprA promoter): 4 µM | Inhibition of DosR binding to hspX promoter-derived DNA fragment (DosR): did not inhibit binding of DosR | Retention of pBP10 by Mtb (Mtb [5]): higher levels of retention of pBP10 | LC3 puncta formation in infected macrophages (Mtb-infected macrophages): enhanced | Conversion of LC3-I to LC3-II (Mtb-infected macrophages; Mtb infected RAW 264.7, immunoblot): enhanced | Inhibition of DNA binding activity of MtrA (MtrA): could inhibit DNA binding activity of MtrA | IC50 (MtrA; densitometry, read-out: IC50, inhibition of MtrA binding to fbpB promoter): 21 µM | Decrease in CFU of Mtb in BMDMs (Mtb in BMDM): ~ 8 fold | Inhibition of binding ability of RegX3 (RegX3): inhibited the binding ability of RegX3 | IC50 (RegX3; densitometry, read-out: IC50, inhibition of RegX3 binding to ppk1 promoter): 18 µM | ESAT-6 in the culture filtrate (Mtb Erdman): reduced amounts of ESAT-6
